For one assay, the target named is T1, huPPARγ (Homo sapiens, UniProt P37231).
T1 sequence (P37231 1-505): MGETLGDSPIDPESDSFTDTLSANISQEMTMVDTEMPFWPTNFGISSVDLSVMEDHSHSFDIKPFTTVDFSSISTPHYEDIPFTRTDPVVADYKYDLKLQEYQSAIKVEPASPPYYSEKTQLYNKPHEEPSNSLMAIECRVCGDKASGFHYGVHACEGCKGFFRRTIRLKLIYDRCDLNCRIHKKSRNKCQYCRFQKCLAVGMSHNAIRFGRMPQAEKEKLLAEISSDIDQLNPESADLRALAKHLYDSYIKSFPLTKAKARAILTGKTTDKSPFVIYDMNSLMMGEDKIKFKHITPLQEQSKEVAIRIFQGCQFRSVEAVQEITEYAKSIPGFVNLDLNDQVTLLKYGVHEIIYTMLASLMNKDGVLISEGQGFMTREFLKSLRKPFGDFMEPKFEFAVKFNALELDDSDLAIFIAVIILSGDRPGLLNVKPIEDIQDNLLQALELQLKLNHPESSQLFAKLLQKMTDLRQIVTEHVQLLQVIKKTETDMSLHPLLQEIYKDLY
T1 sequence (P19793 1-462 partner): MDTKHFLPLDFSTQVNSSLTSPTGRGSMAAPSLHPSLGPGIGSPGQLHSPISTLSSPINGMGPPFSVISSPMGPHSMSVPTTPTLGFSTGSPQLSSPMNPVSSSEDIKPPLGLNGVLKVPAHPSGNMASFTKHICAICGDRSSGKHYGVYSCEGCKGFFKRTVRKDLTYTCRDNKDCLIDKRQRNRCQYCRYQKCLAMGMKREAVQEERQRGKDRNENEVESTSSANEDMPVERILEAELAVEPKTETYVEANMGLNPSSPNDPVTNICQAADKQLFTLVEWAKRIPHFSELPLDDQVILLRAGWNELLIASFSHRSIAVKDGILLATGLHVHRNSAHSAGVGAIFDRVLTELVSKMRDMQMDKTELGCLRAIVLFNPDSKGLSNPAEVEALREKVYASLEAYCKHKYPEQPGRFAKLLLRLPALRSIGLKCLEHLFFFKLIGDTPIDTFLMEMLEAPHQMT
Description: DNA-dependent binding (ABCD binding), SPA, tritium-labeled PPARγ agonist radioligand. The following applies: displacement of tritium-labeled PPARγ agonist. The procedure: (§1) DNA-dependent binding (ABCD binding) was carried out using SPA technology with PPAR receptors. Tritium-labeled PPARα and PPARγ agonists were used as radioligands for generating displacement curves and IC50 values with compounds of the invention. Cotransfection assays were carried out in CV-1 cells. The reporter plasmid contained an acylCoA oxidase (AOX) PPRE and TK promoter upstream of the luciferase reporter cDNA. Appropriate PPARs and RXRα were constitutively expressed using plasmids containing the CMV promoter. […] In order to eliminate such interference, a GAL4 chimeric system was used in which the DNA binding domain of the transfected PPAR was replaced by that of GAL4, and the GAL4 response element was utilized in place of the AOX PPRE. Cotransfection efficacy was determined relative to PPARα agonist and PPARγ agonist reference molecules. Efficacies were determined by computer fit to a concentration-response curve, or in some cases at a single high concentration of agonist (10 μM). For binding or cotransfection studies with receptors other than PPARs, similar assays were carried out using appropriate ligands, receptors, reporter constructs, etc., for that particular receptor.
(§2) These studies were carried out to evaluate the ability of compounds of the invention to bind to and/or activate various nuclear transcription factors, particularly huPPARα (“hu” indicates “human”) and huPPARγ. These studies provide in vitro data concerning efficacy and selectivity of compounds of the invention. Furthermore, binding and cotransfection data for compounds of the invention were compared with corresponding data for marketed compounds that act on either huPPARα or huPPARγ.
(§3) Binding and cotransfection data for representative compounds of the invention are compared with corresponding data for reference compounds in Table II.

The target of the next assay is T2, huPPARα (Homo sapiens, UniProt Q07869).
T2 sequence (Q07869 1-468): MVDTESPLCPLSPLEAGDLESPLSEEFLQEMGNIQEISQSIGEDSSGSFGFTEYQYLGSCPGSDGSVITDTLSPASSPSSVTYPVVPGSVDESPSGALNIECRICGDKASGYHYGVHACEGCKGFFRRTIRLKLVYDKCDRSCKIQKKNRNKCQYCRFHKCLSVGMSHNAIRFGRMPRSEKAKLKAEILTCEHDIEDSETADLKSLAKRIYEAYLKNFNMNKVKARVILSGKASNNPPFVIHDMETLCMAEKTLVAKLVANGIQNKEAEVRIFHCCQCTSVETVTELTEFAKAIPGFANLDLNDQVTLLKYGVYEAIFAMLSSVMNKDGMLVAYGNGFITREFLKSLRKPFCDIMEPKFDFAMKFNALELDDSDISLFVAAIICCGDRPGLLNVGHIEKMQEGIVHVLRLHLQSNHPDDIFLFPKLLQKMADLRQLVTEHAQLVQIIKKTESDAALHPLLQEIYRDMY
T2 sequence (P19793 1-462 partner): T1 sequence (P19793 1-462 partner)
Description: DNA-dependent binding (ABCD binding), SPA, tritium-labeled PPARα agonist radioligand. To be noted: displacement of tritium-labeled PPARα agonist. As to the method: as §1, §2, §3

For `Cc1oc(-c2ccccc2)nc1CCOc1ccc(OC(C)(C)C(=O)O)cc1` [Example 1, 2-Methyl-2-{4-[2-(5-methyl-2-phenyloxazol-4-yl)ethoxy]phenoxy}propionic acid], the IC50 came out at 2130 nM on huPPARγ and 1680 nM at huPPARα.

With `Cc1oc(-c2cccc(Br)c2)nc1CCOc1ccc(OC(C)(C)C(=O)O)cc1` [Example 9A, 2-(4-{2-[2-(3-Bromophenyl)-5-methyloxazol-4-yl]ethoxy}phenoxy)-2-methylpropionic acid], the values for the concentration for half-maximal inhibition (IC50) on huPPARγ and on huPPARα were 180 nM and 75 nM, respectively.

In the case of `CCc1cccc(-c2nc(CCOc3ccc(OC(C)(C)C(=O)O)cc3)c(C)o2)c1` [Example 12, 2-(4-{2-[2-(3-Ethylphenyl)-5-methyloxazol-4-yl]ethoxy}phenoxy)-2-methylpropionic acid], the IC50 on huPPARγ was found to be 219 nM; at huPPARα, 31 nM.

`Cc1oc(-c2cccc(CCc3ccccc3)c2)nc1CCOc1ccc(OC(C)(C)C(=O)O)cc1` [Example 12A, 2-Methyl-2-(4-{2-[5-methyl-2-(3-phenethylphenyl)oxazol-4-yl]ethoxy}phenoxy)-propionic acid]: the IC50 on huPPARγ came to 102 nM; on huPPARα it was 233 nM.

Regarding `CCc1ccc(-c2nc(CCOc3ccc(OC(C)(C)C(=O)O)cc3)c(C)o2)cc1` [Example 13, 2-(4-{2-[2-(4-Ethylphenyl)-5-methyloxazol-4-yl]ethoxy}phenoxy)-2-methylpropionic acid], the results for the IC50 at huPPARγ and at huPPARα were 420 nM and 25 nM, respectively.

Consider `Cc1oc(-c2ccc(OC3CCCCC3)cc2)nc1CCOc1ccc(OC(C)(C)C(=O)O)cc1` [Example 21, 2-(4-{2-[2-(4-Cyclohexyloxy-phenyl)-5-methyl-oxazol-4-yl]-ethoxy}-phenoxy)-2-methyl-propionic acid], for which the IC50 on huPPARγ turned out to be 627 nM; on huPPARα, 401 nM.

As to `Cc1cc(OCCc2nc(-c3ccccc3)oc2C)ccc1OC(C)(C)C(=O)O` [Example 24, 2-Methyl-2-{2-methyl-4-[2-(5-methyl-2-phenyloxazol-4-yl)ethoxy]phenoxy}propionic acid], the IC50 at huPPARγ is 239 nM; on huPPARα, 624 nM.

With `CCCc1cc(OCCc2nc(-c3ccccc3)oc2C)ccc1OCC(=O)O` [Example 26, {4-[2-(5-methyl-2-phenyl-oxazol-4-yl)ethoxy]-2-propylphenoxy}acetic acid], the values for the IC50 at huPPARγ and at huPPARα were 1150 nM and 3280 nM, respectively.

Turning to `CCCc1cc(OCCc2nc(-c3ccccc3)oc2C)ccc1OC(C)(C)C(=O)O` [Example 26A, 2-Methyl-2-{4-[2-(5-methyl-2-phenyloxazol-4-yl)ethoxy]-2-propylphenoxy}propionic acid], the figures for the IC50 at huPPARγ and on huPPARα were 102 nM and 79 nM, respectively.

In the case of `CCCc1cc(OC(C)(C)C(=O)O)ccc1OCCc1nc(-c2ccccc2)oc1C` [Example 27A, 2-Methyl-2-{4-[2-(5-methyl-2-phenyloxazol-4-yl)ethoxy]-3-propylphenoxy}propionic acid], the half-inhibitory concentration (IC50) on huPPARγ is 49 nM; on huPPARα, 113 nM.

For `CCc1cc(OCCc2nc(-c3ccccc3)oc2C)ccc1OC(C)(C)C(=O)O` [Example 30A, 2-{2-Ethyl-4-[2-(5-methyl-2-phenyloxazol-4-yl)ethoxy]phenoxy}2-methylpropionic acid], the IC50 was 78 nM at huPPARγ and 189 nM at huPPARα.

For the compound `Cc1oc(-c2ccccc2)nc1CCOc1ccc(OC(C)(C)C(=O)O)c(CC(C)C)c1` [Example 30C, 2-{2-Isobutyl-4-[2-(5-methyl-2-phenyloxazol-4-yl)ethoxy]phenoxy}-2-methylpropionic acid], the IC50 was 148 nM on huPPARγ and 259 nM at huPPARα.

Regarding `Cc1oc(-c2ccccc2)nc1CCOc1ccc(OC(C)(C)C(=O)O)c(CCc2ccccc2)c1` [Example 30J, 2-Methyl-2-{4-[2-(5-methyl-2-phenyloxazol-4-yl)ethoxy]-2-phenethylphenoxy}propionic acid], the IC50 at huPPARγ amounted to 83 nM; at huPPARα, 82 nM.

For `CCCCc1cc(OC(C)(C)C(=O)O)ccc1OCCc1nc(-c2ccccc2)oc1C` [Example 31F, 2-{3-Butyl-4-[2-(5-methyl-2-phenyloxazol-4-yl)ethoxy]phenoxy}-2-methylpropionic acid], the IC50 at huPPARγ came out at 10 nM; at huPPARα, 30 nM.

Consider `Cc1oc(-c2ccccc2)nc1CCOc1ccc(OC(C)(C)C(=O)O)c(Cc2ccccc2)c1` [Example 32, 2-{2-Benzyl-4-[2-(5-methyl-2-phenyloxazol-4-yl)ethoxy]phenoxy}-2-methylpropionic acid], for which the figures for the 50% inhibitory concentration (IC50) at huPPARγ and on huPPARα were 42 nM and 50 nM, respectively.

Regarding `Cc1oc(-c2ccccc2)nc1CCOc1ccc(OC(C)(C)C(=O)O)c2ccccc12` [Example 37, 2-Methyl-2-{4-[2-(5-methyl-2-phenyl-oxazol-4-yl)-ethoxy]-naphthalen-1-yloxy}-propionic acid], the IC50 was determined as 172 nM on huPPARγ and 294 nM at huPPARα.

Turning to `Cc1oc(-c2ccccc2)nc1CCOc1ccc(OC(C)(C)C(=O)O)c2c1CCCC2` [Example 38, 2-Methyl-2-{4-[2-(5-methyl-2-phenyl-oxazol-4-yl)-ethoxy]-5,6,7,8-tetrahydro-naphthalen-1-yloxy}-propionic acid], the results for the IC50 at huPPARγ and on huPPARα were 81 nM and 254 nM, respectively.

As usually defined, the IC50 is the midpoint of a concentration-inhibition curve.

For the origin of these results see patent publication US7351728B2, “Oxazolyl-aryloxyacetic acid derivatives and their use as PPAR agonists” (Eli Lilly and Company, priority 2003, dated 2008).
